ChEMBL document CHEMBL1145856, “Synthesis and in vitro characterization of 1-(4-aminofurazan-3-yl)-5-dialkylaminomethyl-1H-[1,2,3]triazole-4-carboxylic acid derivatives. A new class of selective GSK-3 inhibitors” (J Med Chem, 2003)
pEC50, pIC50: −log10 of the molar value.

Tests used:
[1] = biological target: T1, Glycogen synthase kinase-3 beta (Homo sapiens, UniProt P49841)
Description: Inhibitory activity against human glycogen synthase kinase-3beta (GSK3-beta) at 100 uM ATP

[2] = biological target: T1, Glycogen synthase kinase-3 beta; type: functional, cell-based, Cricetulus griseus, CHO
Description: Stimulation of glycogen synthase in CHO cells expressing human insulin receptor

[3] = biological target: Cyclin-dependent kinase 2/cyclin A (Homo sapiens, UniProt P24941); test: Inhibition of Cyclin-dependent kinase 2-cyclin A; type: protein-complex assay
[4] = biological target: T1, Glycogen synthase kinase-3 beta; type: functional, cell-based, Cricetulus griseus, CHO-hIR
[5] = biological target: T1, Glycogen synthase kinase-3 beta; test: Inhibition of human Glycogen synthase kinase-3 beta (GSK3-beta) at 100 uM ATP

T1 sequence (P49841 whole entry): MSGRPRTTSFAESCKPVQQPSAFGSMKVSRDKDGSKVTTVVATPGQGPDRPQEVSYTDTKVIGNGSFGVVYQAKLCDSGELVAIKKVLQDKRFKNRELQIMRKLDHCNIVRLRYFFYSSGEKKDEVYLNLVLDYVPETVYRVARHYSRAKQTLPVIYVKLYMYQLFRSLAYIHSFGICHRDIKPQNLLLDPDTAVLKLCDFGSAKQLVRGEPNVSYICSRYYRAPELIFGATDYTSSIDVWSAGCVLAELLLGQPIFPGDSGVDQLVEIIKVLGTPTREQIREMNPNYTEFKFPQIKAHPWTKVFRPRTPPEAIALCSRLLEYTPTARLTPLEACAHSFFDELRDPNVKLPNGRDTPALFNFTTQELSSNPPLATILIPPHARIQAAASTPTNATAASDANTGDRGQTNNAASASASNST

SMILES | pIC50 [1] | further results
Nc1nonc1-n1nnc(C(=O)N/N=C/c2ccncc2)c1CN1CCCC1 | 7.00 | 
Nc1nonc1-n1nnc(-c2nnc(-c3ccncc3)[nH]2)c1CN1CCCCC1 | 6.55 | pEC50 [2]: 5.73; pIC50 [3]: < 3.60; pEC50 [4]: 4.96
CN(C)Cc1c(-c2n[nH]c(-c3ccncc3)n2)nnn1-c1nonc1N | 5.16 | 
Nc1nonc1-n1nnc(C(=O)N/N=C/c2ccncc2)c1CN1CCCCC1 | 7.00 | pEC50 [2]: 5.55; pIC50 [3]: 4.02; pEC50 [4]: 5.34
Nc1nonc1-n1nnc(C(=O)NCc2ccncc2)c1CN1CCCCC1 | 5.03 | 
CN(CCc1ccncc1)C(=O)c1nnn(-c2nonc2N)c1CN1CCCCC1 | < 3.60 | 
Nc1nonc1-n1nnc(-c2n[nH]c(-c3ccncc3)n2)c1CN1CCCC1 | 6.62 | 
CCN(CC)Cc1c(C(=O)NN)nnn1-c1nonc1N |  | pIC50 [5]: 4.77
NNC(=O)c1nnn(-c2nonc2N)c1CN1CCCCC1 | 5.02 | 

The next lines start with results.

pIC50 [1] | SMILES | further results
5.68 | Nc1nonc1-n1nnc(C(=O)NCCc2ccncc2)c1CN1CCCC1 | 
4.93 | CCN(CC)Cc1c(C(=O)NCCc2ccncc2)nnn1-c1nonc1N | 
5.94 | Nc1nonc1-n1nnc(C(=O)NCCc2ccncc2)c1CN1CCCCC1 | pEC50 [2]: 4.72; pIC50 [3]: 3.92; pEC50 [4]: 4.24
< 3.60 | CC(C)CNCc1c(C(=O)NCc2ccncc2)nnn1-c1nonc1N | 
6.39 | CCN(CC)Cc1c(C(=O)N/N=C/c2ccncc2)nnn1-c1nonc1N | 
